Square brackets hold non-standard residues; d marks the D form. Peptide text beside a SMILES is read from it. * marks the point of attachment. Cbz = O=C(OCc1ccccc1)*; Nva = CCC[CH](N)C(=O)O; Bn = c1ccc(C*)cc1; Sar = CNCC(=O)O
molecular target: SARS-CoV-2 MPro (Severe acute respiratory syndrome coronavirus 2, UniProt P0DTD1); experiment: MPro activity assay (de-quenching of Edans fluorescence on cleavage of a Dabcyl/Edans peptide); type: biochemical; details: in-house acquired data, internal screening under standardized conditions (128 compounds)

Compound | Class (MPro activity class)
CC(=NNC(N)=O)c1cc2ccccc2oc1=O [COV19144] | 0 (compounds with IC50 > 20 μM, percentage inhibition <80% at 20 µM or 50 μM, or percentage enzyme inhibition <50% at 10 µM were labelled as INACTIVE)
COc1ccc(Cn2sc3ccccc3c2=O)cc1 [COV19009] | 1 (Compounds with IC50 < 10 µM or with a percentage of enzyme inhibition >50% at 10 µM were labelled as ACTIVE)
CN1CC(=O)NC(Cc2ccccc2)C(=O)N(C)CC(=O)NC(CSCc2ccccc2)C1=O (stereo not shown) [vCOV194219] (cyclo([Sar]C(Bn)[Sar]F); configuration not given here) | 0 (compounds with IC50 > 20 μM, percentage inhibition <80% at 20 µM or 50 μM, or percentage enzyme inhibition <50% at 10 µM were labelled as INACTIVE)
COc1ccc(C2C(C(=O)c3ccc(OC)c(OC)c3)=C(O)C(=O)N2c2nc3ccc(OC)cc3s2)cc1 (stereo not shown) [ADKPN162] | 0 (compounds with IC50 > 20 μM, percentage inhibition <80% at 20 µM or 50 μM, or percentage enzyme inhibition <50% at 10 µM were labelled as INACTIVE)
Cc1cccc(C(N)=O)c1I [COV19036] | 0 (compounds with IC50 > 20 μM, percentage inhibition <80% at 20 µM or 50 μM, or percentage enzyme inhibition <50% at 10 µM were labelled as INACTIVE)
Cc1cc(Cl)cc2sn(Cc3ccccc3)c(=O)c12 [COV19006] | 1 (Compounds with IC50 < 10 µM or with a percentage of enzyme inhibition >50% at 10 µM were labelled as ACTIVE)
CC(=O)OCC1OC(OC(C)=O)C(NC(=O)C(Cc2ccccc2)NC(=O)CN2CCCC(NC(=O)OC(C)(C)C)C2=O)C(OC(C)=O)C1OC(C)=O (stereo not shown) [COV19186] | 1 (Compounds with IC50 < 10 µM or with a percentage of enzyme inhibition >50% at 10 µM were labelled as ACTIVE)
Cc1cccc(C(=O)Nc2ccccc2)c1I [COV19034] | 0 (compounds with IC50 > 20 μM, percentage inhibition <80% at 20 µM or 50 μM, or percentage enzyme inhibition <50% at 10 µM were labelled as INACTIVE)

same assay, conditions: read-out: MPro activity (%)

Compound | activity at 25 µM [%]
[O-][n+]1onc2ccc(/C=C/[S+]([O-])c3ccccc3)cc21 (stereo not shown) [8d] | 91.6 ± 0.1
O=C(O)c1ccc2no[n+]([O-])c2c1 [7d] | 66 ± 4

test system: MPro; experiment: not given; details: compiled from peer-reviewed sources (287 compounds) ref the 18 original articles; cited from earlier work

Compound | Class (MPro activity class)
CC[C@@H]([C@H](C)O)n1ncn(-c2ccc(N3CCN(c4ccc(OC[C@@H]5CO[C@@](Cn6cncn6)(c6ccc(F)cc6F)C5)cc4)CC3)cc2)c1=O [Posaconazole] | 0 (compounds with IC50 > 20 μM, percentage inhibition <80% at 20 µM or 50 μM, or percentage enzyme inhibition <50% at 10 µM were labelled as INACTIVE)
CCCC(C=O)NC(=O)C(CC(C)C)NC(=O)C(CC(C)C)NC(=O)OCc1ccccc1 (stereo not drawn) [MG-115] (Cbz-Leu-Leu-[Nva]-aldehyde; configuration not given here) | 1 (Compounds with IC50 < 10 µM or with a percentage of enzyme inhibition >50% at 10 µM were labelled as ACTIVE)
COc1c(OC2OC(C(=O)O)C(O)C(O)C2O)cc2oc(-c3ccccc3)cc(=O)c2c1O [Oroxylin A-7-O-β-D-glucuronide] | 0 (compounds with IC50 > 20 μM, percentage inhibition <80% at 20 µM or 50 μM, or percentage enzyme inhibition <50% at 10 µM were labelled as INACTIVE)
CN(C)c1ccc(N(Cc2ccsc2)C(=O)Cn2nnc3ccccc32)cc1 [ALP-POS-d2866bdf-1] | 1 (Compounds with IC50 < 10 µM or with a percentage of enzyme inhibition >50% at 10 µM were labelled as ACTIVE)
O=CC(CC1CCNC1=O)NC(=O)C(Cc1cccc(F)c1)NC(=O)c1cc2ccccc2[nH]1 (stereo not shown) [11b] | 1 (Compounds with IC50 < 10 µM or with a percentage of enzyme inhibition >50% at 10 µM were labelled as ACTIVE)
CC(O)(CS(=O)(=O)c1ccc(F)cc1)C(=O)Nc1ccc(C#N)c(C(F)(F)F)c1 (stereo not shown) [Bicalutamide] | 0 (compounds with IC50 > 20 μM, percentage inhibition <80% at 20 µM or 50 μM, or percentage enzyme inhibition <50% at 10 µM were labelled as INACTIVE)
CCCCOc1cc(Cl)cc(-c2cc(-c3c[nH]c(=O)[nH]c3=O)cn(-c3cccnc3)c2=O)c1 [compound 12] | 1 (Compounds with IC50 < 10 µM or with a percentage of enzyme inhibition >50% at 10 µM were labelled as ACTIVE)
O=C(CCl)N1CCN(Cc2cc(Cl)cc(Cl)c2)CC1 [PAU-UNI-8cdd41c7-1] | 1 (Compounds with IC50 < 10 µM or with a percentage of enzyme inhibition >50% at 10 µM were labelled as ACTIVE)
COc1ccc(C2CC(c3ccccc3)=NN2C(=O)CCl)cc1OC (stereo not shown) [MED-COV-4280ac29-30] | 1 (Compounds with IC50 < 10 µM or with a percentage of enzyme inhibition >50% at 10 µM were labelled as ACTIVE)
O=C(c1cc(=O)[nH]c2ccccc12)N1CCN(Cc2ccccc2)CC1 [BEN-DND-7e92b6ca-10] | 1 (Compounds with IC50 < 10 µM or with a percentage of enzyme inhibition >50% at 10 µM were labelled as ACTIVE)
Nc1cccc(C2CN(C(=O)CCl)Cc3ccccc32)c1 (stereo not shown) [NIR-THE-c331be7a-1] | 1 (Compounds with IC50 < 10 µM or with a percentage of enzyme inhibition >50% at 10 µM were labelled as ACTIVE)
COc1cc(Cl)cc(-c2cc(-c3c[nH]c(=O)[nH]c3=O)cn(-c3cccnc3)c2=O)c1 [compound 10] | 1 (Compounds with IC50 < 10 µM or with a percentage of enzyme inhibition >50% at 10 µM were labelled as ACTIVE)
Cc1csc(C(=O)NN=Cc2cccnc2)c1N [LASSBio-1891 (14)] | 0 (compounds with IC50 > 20 μM, percentage inhibition <80% at 20 µM or 50 μM, or percentage enzyme inhibition <50% at 10 µM were labelled as INACTIVE)
O=C(O)CC[C@H]1CC[C@@](c2cc(F)ccc2F)(S(=O)(=O)c2ccc(Cl)cc2)CC1 [MK-0752] | 0 (compounds with IC50 > 20 μM, percentage inhibition <80% at 20 µM or 50 μM, or percentage enzyme inhibition <50% at 10 µM were labelled as INACTIVE)
TERIFLUNOMIDE | 0 (compounds with IC50 > 20 μM, percentage inhibition <80% at 20 µM or 50 μM, or percentage enzyme inhibition <50% at 10 µM were labelled as INACTIVE)
Cc1cccc(C2CN(C(=O)CCl)Cc3ccccc32)c1 (stereo not shown) [NIR-THE-c331be7a-6] | 1 (Compounds with IC50 < 10 µM or with a percentage of enzyme inhibition >50% at 10 µM were labelled as ACTIVE)
CC(C)C[C@H](NC(=O)[C@@H](NC(=O)c1cccc(-c2ccccc2)n1)[C@@H](C)O)B(O)O [delanzomib] | 0 (compounds with IC50 > 20 μM, percentage inhibition <80% at 20 µM or 50 μM, or percentage enzyme inhibition <50% at 10 µM were labelled as INACTIVE)
COC[C@H](NC(=O)c1cnc(C)s1)C(=O)N[C@@H](COC)C(=O)N[C@@H](Cc1ccccc1)C(=O)[C@@]1(C)CO1 [Oprozomib] | 0 (compounds with IC50 > 20 μM, percentage inhibition <80% at 20 µM or 50 μM, or percentage enzyme inhibition <50% at 10 µM were labelled as INACTIVE)
Nc1nc(N)c2nc(-c3cccc(O)c3)c(-c3cccc(O)c3)nc2n1 [TG100-115] | 0 (compounds with IC50 > 20 μM, percentage inhibition <80% at 20 µM or 50 μM, or percentage enzyme inhibition <50% at 10 µM were labelled as INACTIVE)
N#Cc1cccc(C2CN(C(=O)CCl)Cc3ccccc32)c1 (stereo not shown) [NIR-THE-c331be7a-2] | 1 (Compounds with IC50 < 10 µM or with a percentage of enzyme inhibition >50% at 10 µM were labelled as ACTIVE)
Cc1ccncc1NC(=O)Cc1cccc(Cl)c1 [TRY-UNI-714a760b-6] | 0 (compounds with IC50 > 20 μM, percentage inhibition <80% at 20 µM or 50 μM, or percentage enzyme inhibition <50% at 10 µM were labelled as INACTIVE)

Source: publication PMC10323144, “Garbage in, garbage out: how reliable training data improved a virtual screening approach against SARS-CoV-2 MPro” (Frontiers in Pharmacology, 2023)
